Holding throughout (type): ADME
In data set [1] the target is T1, Albumin (Bos taurus, UniProt P02769). The experiment in a line: Effect on secondary structure of bovine serum albumin assessed as alpha-helix content at 0.5 uM at pH 7.4 by circular dichroism method (reference value: 63 %). The settings on record: cattle, pH 7.4, 0.5 µM. (Circular dichroism is the unequal absorption of left and right circularly polarised light.)

For data set [2], the target named is T1, Albumin. The experiment in a line: Binding affinity to bovine serum albumin at pH 7.4 by fluorescence spectroscopy. The settings on record: cattle, isolated protein.
Data set [3] has as its target T1, Albumin. Nature of the data set: Effect on secondary structure of bovine serum albumin assessed as beta antiparallel content at 0.5 uM at pH 7.4 by circular dichroism method (reference value: 3 %). The settings on record: cattle, pH 7.4, 0.5 µM.
Data set [4] addresses T1, Albumin. Nature of the data set: Effect on secondary structure of bovine serum albumin assessed as beta-sheet content at 0.5 uM at pH 7.4 by circular dichroism method (reference value: 16 %). The settings on record: cattle, pH 7.4, 0.5 µM.
The target in data set [5] is T1, Albumin. Nature of the data set: Effect on secondary structure of bovine serum albumin assessed as turn structure content at 0.5 uM at pH 7.4 by circular dichroism method (reference value: 12 %). The following applies: cattle, pH 7.4, 0.5 µM.
The target in data set [6] is T1, Albumin. The experiment in a line: Effect on secondary structure of bovine serum albumin assessed as random coil content at 0.5 uM at pH 7.4 by circular dichroism method (reference value: 6 %). The settings on record: cattle, pH 7.4, 0.5 µM.
In data set [7] the target is T1, Albumin. The experiment in a line: Binding affinity to bovine serum albumin at pH 7.4 by Stern-Volmer plot. The following applies: cattle, isolated protein.
The target of data set [8] is T1, Albumin. Nature of the data set: Binding affinity to bovine serum albumin at pH 7.4 by McGhee and von Hippel method. The settings on record: cattle, isolated protein.
For data set [9], the target named is T1, Albumin. Nature of the data set: Binding affinity to bovine serum albumin at 1 to 100 uM at pH 7.4 by fluorescence spectroscopy. The following applies: cattle, isolated protein, pH 7.4, 100 µM.

T1 sequence (P02769 whole entry): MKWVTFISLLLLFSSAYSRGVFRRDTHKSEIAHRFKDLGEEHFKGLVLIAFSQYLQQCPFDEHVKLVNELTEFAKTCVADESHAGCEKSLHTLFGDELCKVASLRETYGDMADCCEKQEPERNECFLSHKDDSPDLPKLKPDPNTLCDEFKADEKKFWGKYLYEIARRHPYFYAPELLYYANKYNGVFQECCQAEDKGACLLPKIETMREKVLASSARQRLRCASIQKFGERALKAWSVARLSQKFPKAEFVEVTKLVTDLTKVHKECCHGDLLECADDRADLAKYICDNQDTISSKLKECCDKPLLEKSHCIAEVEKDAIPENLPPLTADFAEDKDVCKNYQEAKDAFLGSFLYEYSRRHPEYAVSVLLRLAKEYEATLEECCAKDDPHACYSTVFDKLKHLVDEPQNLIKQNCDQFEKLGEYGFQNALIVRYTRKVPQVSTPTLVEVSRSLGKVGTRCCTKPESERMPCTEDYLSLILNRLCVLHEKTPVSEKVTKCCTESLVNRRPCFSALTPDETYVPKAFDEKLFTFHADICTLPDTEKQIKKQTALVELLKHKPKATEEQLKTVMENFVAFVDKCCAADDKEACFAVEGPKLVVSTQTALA

On to `CCC(=C(c1ccc(O)cc1)c1ccc(OCCN(C)C)cc1)c1ccccc1`, for which the Activity at Albumin [1] is 39%; on Albumin [3], 3%; at Albumin [4], 17%; at Albumin [5], 21%; on Albumin [6], 20%. Further, the K turned out to be 1.8 ×10⁴ /M at Albumin [2], 1.8 ×10⁴ /M on Albumin [7] and 1.5 ×10⁴ /M at Albumin [8].
On to `CC/C(=C(\c1ccccc1)c1ccc(OCCN(C)C)cc1)c1ccccc1` [TAMOXIFEN], for which the Activity came to 41% at Albumin [1]; 98% at Albumin [9]; 3% on Albumin [3]; 26% at Albumin [4]; 20% on Albumin [5]; 10% on Albumin [6]. Moreover, the K at Albumin [2] amounted to 1.96 ×10⁴ /M; on Albumin [7] it was 1.96 ×10⁴ /M; at Albumin [8] it was 1.65 ×10⁴ /M.
As for `CC/C(=C(\c1ccc(O)cc1)c1ccc(OCCNC)cc1)c1ccccc1` [ENDOXIFEN], the Activity is recorded as 47% on Albumin [1]; 3% on Albumin [3]; 14% on Albumin [4]; 21% at Albumin [5]; 15% on Albumin [6]. In addition, the K was 8.01 ×10³ /M at Albumin [2], 0.8 ×10⁴ /M on Albumin [7] and 1.1 ×10⁴ /M on Albumin [8].
